From ChEMBL document CHEMBL1201862, “PubChem BioAssay data set” (2004)
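Five concentrations, 48 hours, 96-well plates. GI50 = concentration required for 50% inhibition of growth.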 Activity calls are given as the source filed them. No stated cut-off is given here; in the data, active = GI50 up to about 1.1 µM and inactive = higher.

Legend:
Test in all cases: NCI anticancer screen, dose series, 48 h
CAKI-1 = system: CAKI-1
CCRF-CEM = system: CCRF-CEM
EKVX = system: EKVX
HOP-62 = system: HOP-62
KM-20L2 = system: KM-20L2
KM12 = system: KM12
LXFL 529 = system: LXFL 529
M19-MEL = system: M19-MEL
NCI-H226 = system: NCI-H226
OVCAR-5 = system: OVCAR-5
OVCAR-8 = system: OVCAR-8
RXF 393 = system: RXF 393
SK-MEL-2 = system: SK-MEL-2
SN12C = system: SN12C
SNB-78 = system: SNB-78
TK-10 = system: TK-10
U-251 = system: U-251
UO-31 = system: UO-31
OVCAR-3 = system: OVCAR-3
SNB-75 = system: SNB-75

Measured: GI50

Cc1ccc(SSc2ccc(C)cc2C(=O)O)c(C(=O)O)c1
inactive: CAKI-1 > 100 µM | CCRF-CEM > 100 µM | EKVX > 100 µM | HOP-62 > 100 µM | KM-20L2 > 100 µM | KM12 > 100 µM | LXFL 529 > 100 µM | M19-MEL > 100 µM | NCI-H226 > 100 µM | OVCAR-5 > 100 µM | OVCAR-8 > 100 µM | RXF 393 > 100 µM | SK-MEL-2 > 100 µM | SN12C > 100 µM | SNB-78 > 100 µM | TK-10 > 100 µM | U-251 > 100 µM | UO-31 > 100 µM

CCC(CO)Nc1nc2c(c(=O)n(C)c(=O)n2C)n1CCO (centres undefined)
inactive: EKVX > 100 µM | KM-20L2 > 100 µM | KM12 > 100 µM | LXFL 529 > 100 µM | M19-MEL > 100 µM | NCI-H226 > 100 µM | OVCAR-3 > 100 µM | OVCAR-5 > 100 µM | OVCAR-8 > 100 µM | RXF 393 > 100 µM | SK-MEL-2 > 100 µM | SN12C > 100 µM | SNB-75 48.9 µM | SNB-78 4.91 µM | TK-10 > 100 µM | U-251 > 100 µM | UO-31 > 100 µM

C[Si](C)(C)C1(Sc2ccccc2)SCCCS1
inactive: CAKI-1 54.6 µM | CCRF-CEM 14.8 µM | EKVX 47.9 µM | HOP-62 29.7 µM | KM12 64.7 µM | LXFL 529 34.4 µM | M19-MEL 34 µM | OVCAR-3 30.1 µM | OVCAR-5 > 100 µM | OVCAR-8 33.8 µM | RXF 393 32.5 µM | SK-MEL-2 58.9 µM | SN12C 27 µM | SNB-75 37.8 µM | SNB-78 51.8 µM | TK-10 > 100 µM | U-251 38.4 µM | UO-31 6.27 µM

O=C1NC2OC(CO)C(O)C(O)C2O1 (centres undefined)
inactive: CAKI-1 > 100 µM | CCRF-CEM > 100 µM | EKVX > 100 µM | HOP-62 > 100 µM | KM-20L2 > 100 µM | KM12 > 100 µM | LXFL 529 > 100 µM | M19-MEL > 100 µM | OVCAR-3 > 100 µM | OVCAR-5 > 100 µM | OVCAR-8 > 100 µM | SK-MEL-2 > 100 µM | SN12C > 100 µM | SNB-75 > 100 µM | SNB-78 > 100 µM | TK-10 > 100 µM | U-251 > 100 µM | UO-31 > 100 µM

C/C(=N\N(C)C)C(CN(C)C)C(c1ccccc1)c1c(O)c2ccccc2oc1=O (centres undefined)
inactive: CCRF-CEM > 100 µM | EKVX 68.7 µM | KM-20L2 > 100 µM | KM12 > 100 µM | LXFL 529 > 100 µM | NCI-H226 > 100 µM | OVCAR-3 > 100 µM | OVCAR-5 > 100 µM | OVCAR-8 > 100 µM | RXF 393 > 100 µM | SK-MEL-2 > 100 µM | SN12C > 100 µM | SNB-75 30.3 µM | SNB-78 > 100 µM | TK-10 > 100 µM | U-251 > 100 µM

O/N=C(\C(=N/O)Nc1ccc(-c2ccc(NC(=N/O)/C(=N\O)c3ccccc3)cc2)cc1)c1ccccc1
inactive: CAKI-1 22.4 µM | CCRF-CEM 18.8 µM | EKVX 20.4 µM | HOP-62 11 µM | KM-20L2 18.9 µM | KM12 19 µM | LXFL 529 15.7 µM | M19-MEL 17.2 µM | NCI-H226 28.5 µM | OVCAR-3 17.1 µM | OVCAR-5 13.5 µM | OVCAR-8 21.4 µM | SK-MEL-2 20.2 µM | SN12C 32.8 µM | SNB-78 30.8 µM | TK-10 36.8 µM | U-251 25.7 µM | UO-31 31.8 µM

CC1=CC(/C=C(\C)CCCc2ccoc2)C2(OC(=O)C(C)=C2O)[C@H]2C1CC[C@@H]2C (some centres undefined)
inactive: CAKI-1 32.1 µM | CCRF-CEM 22.1 µM | EKVX 31.7 µM | KM12 31.8 µM | LXFL 529 18.7 µM | M19-MEL 29 µM | NCI-H226 22.7 µM | OVCAR-3 21.4 µM | OVCAR-8 28.6 µM | RXF 393 18.3 µM | SN12C 20.5 µM | SNB-75 33.7 µM | SNB-78 30.5 µM | TK-10 29.2 µM | U-251 25 µM | UO-31 16.5 µM

CCN(CC)CCCC(C)Nc1ccnc2cc(Cl)ccc12 (centres undefined) [CHLOROQUINE PHOSPHATE]
inactive: CAKI-1 20.8 µM | CCRF-CEM 20.8 µM | EKVX > 57 µM | HOP-62 34.4 µM | KM-20L2 14.6 µM | KM12 31.8 µM | LXFL 529 57.3 µM | OVCAR-3 97.1 µM | OVCAR-5 25.1 µM | OVCAR-8 33.4 µM | RXF 393 2.4 µM | SK-MEL-2 10 µM | SN12C 34.9 µM | SNB-75 > 60.5 µM | SNB-78 29.9 µM | TK-10 37.3 µM | U-251 21.2 µM | UO-31 14.9 µM
